For 37 molecules, EC50 results are on record in patent publication US10138233B2, “Imidazole compounds as modulators of FSHR and uses thereof” (Merck Patent GmbH, priority 2013, dated 2018).

The experiment addresses T1, FSHR (Homo sapiens, UniProt P23945).
T1 construct: expressed in transfected cells; host or cells: CHO cells, clone Cho-FSHR-LUC-1-1-43
T1 sequence (P23945 18-695): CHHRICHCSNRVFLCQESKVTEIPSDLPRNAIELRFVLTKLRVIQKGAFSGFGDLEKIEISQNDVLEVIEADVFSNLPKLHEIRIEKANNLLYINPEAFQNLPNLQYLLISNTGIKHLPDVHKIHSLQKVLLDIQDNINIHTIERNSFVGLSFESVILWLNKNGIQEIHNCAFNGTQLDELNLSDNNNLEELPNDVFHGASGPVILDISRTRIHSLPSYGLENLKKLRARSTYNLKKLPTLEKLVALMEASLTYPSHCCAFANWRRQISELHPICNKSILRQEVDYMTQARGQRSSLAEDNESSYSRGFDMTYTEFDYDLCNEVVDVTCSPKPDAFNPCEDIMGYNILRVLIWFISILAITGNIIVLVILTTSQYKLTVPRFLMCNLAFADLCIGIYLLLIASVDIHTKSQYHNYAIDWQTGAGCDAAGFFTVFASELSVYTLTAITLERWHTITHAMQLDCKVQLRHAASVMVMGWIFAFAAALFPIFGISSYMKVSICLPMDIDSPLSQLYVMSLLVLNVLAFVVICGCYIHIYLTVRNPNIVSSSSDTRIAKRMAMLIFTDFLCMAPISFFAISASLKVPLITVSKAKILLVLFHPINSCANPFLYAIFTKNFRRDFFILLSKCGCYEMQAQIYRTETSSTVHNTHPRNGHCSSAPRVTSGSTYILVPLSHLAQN
Nature of the experiment: EC50 of cyclic AMP production in CHO FSHR cells + EC20 FSH (Assay A). The format is cell-based. Particulars: CHO-FSHR-LUC cells, in presence of EC20 FSH, cAMP HTRF, 1 h 37° C. The method, then:
EC50 of cyclic AMP production in CHO FSHR cells+EC20 FSH (Assay A)
2500 Cho-FSHR-LUC-1-1-43 cells were plated per well in 5 μl of phenol red free DMEM/F12+1% FBS. […] Cells were assayed by adding 100 μl of 2×EC20 FSH/IBMX in DMEM/F12+0.1% BSA) by Multidrop to 2 μl of test compound stamped in 384 well plates (compounds are diluted 1:50). […] The compound plate map was as follows: Column 1: 2 μl of DMSO; Column 2: 2 μl of DMSO; Columns 3-12 and 13-24: 2 μl of test compound, diluted 1:4 in 100% DMSO, or 2 μl of FSH, diluted 1:4 in DMEM/F12+0.1% BSA. The starting concentration for FSH was 50 nM (final concentration was 0.5 nM). […] 10 μl of mixed HTRF (CisBio #62AM4PEC) reagents were added per well and incubated at room temperature for 1 h. The plates were read on Envision using the cAMP HTRF—low volume 384 well protocol. […] Values given in percent (%) indicate the percental effect (response) at a certain concentration of agonist relative to the maximum response of the FSH standard.
(In general: In TR-FRET formats the signal depends on donor and acceptor labels being close together.)
As to `COc1cc2c(cc1OC(C)C)-n1c(-c3cccs3)nc(C(=O)NC3(CO)COC3)c1CO2` [Compound 137, 8-Isopropoxy-7-methoxy-1-thiophen-2-yl-4H-5-oxa-2,9b-diaza-cyclopenta[a]naphthalene-3-carboxylic acid (3-hydroxymethyl-oxetan-3-yl)-amide], the EC50 lay in the range of 1000 to 5000 nM. Consider `COc1cc2c(cc1CC(C)C)-n1c(-c3cn[nH]c3C)nc(C(=O)N3CCOCC3(C)C)c1CC2` [Compound 27, (3,3-Dimethyl-morpholin-4-yl)-[8-isobutyl-7-methoxy-1-(5-methyl-1H-pyrazol-4-yl)-4,5-dihydro-imidazo[1,5-a]quinolin-3-yl]-methanone], for which the concentration for a half-maximal effect (EC50) lay within 1000 to 5000 nM. The figure for `COc1cc2c(cc1CC(C)C)-n1c(-c3ccn(C)n3)nc(C(=O)N3CCOCC3(C)C)c1CC2` [Compound 29, (3,3-Dimethyl-morpholin-4-yl)-[8-isobutyl-7-methoxy-1-(1-methyl-1H-pyrazol-3-yl)-4,5-dihydro-imidazo[1,5-a]quinolin-3-yl]-methanone] is 100 to 1000 nM; for `COc1ccc(-c2nc(C(=O)N3CCOCC3(C)C)c3n2-c2cc(OC(C)C)c(OC)cc2CC3)c(C)c1` [Compound 128] it is 1000 to 5000 nM. Next, `COc1cc2c(cc1OC(C)C)-n1c(-c3ccc(Cl)c(F)c3)nc(C(=O)N3CCOCC3(C)C)c1CC2` [Compound 109]: 100 to 1000 nM. For `COc1cc2c(cc1OC(C)C)-n1c(-c3cscc3C)nc(C(=O)N3CCOCC3(C)C)c1CC2` [Compound 120], the EC50 was < 100 nM. With `COc1cc2c(cc1OC(C)C)-n1c(-c3cncnc3)nc(C(=O)N3CCOCC3(C)C)c1CC2` [Compound 45], the half-maximal effective concentration (EC50) is 100 to 1000 nM. Next, `COc1cc2c(cc1CC(C)C)-n1c(-c3cccs3)nc(C(=O)N3CCOCC34COC4)c1CC2` [Compound 56, (2,8-Dioxa-5-aza-spiro[3.5]non-5-yl)-(8-isobutyl-7-methoxy-1-thiophen-2-yl-4,5-dihydro-imidazo[1,5-a]quinolin-3-yl)-methanone]: < 100 nM; `CCCn1nc(C)cc1-c1nc(C(=O)N2CCOCC2(C)C)c2n1-c1cc(OC(C)C)c(OC)cc1CC2` [Compound 91]: 1000 to 5000 nM. In the case of `COc1cc2c(cc1CC(C)C)-n1c(-c3sccc3C)nc(C(=O)N(C)C(C)(C)C)c1CC2` [Compound 146, 8-Isobutyl-7-methoxy-1-(3-methyl-thiophen-2-yl)-4,5-dihydro-imidazo[1,5-a]quinoline-3-carboxylic acid tert-butyl-methyl-amide], the EC50 fell in the range of 100 to 1000 nM.

With `COc1cc2c(cc1OC(C)C)-n1c(-c3cccc(F)c3)nc(C(=O)N(C)C(C)(C)C)c1CC2` [Compound 66], the EC50 was in the range of 100 to 1000 nM.

As to `COc1cc2c(cc1OC(C)C)-n1c(-c3ccc(C)cc3)nc(C(=O)N(C)C(C)(C)C)c1CC2` [Compound 63], the concentration giving a half-maximal response (EC50) lay in the range of 100 to 1000 nM.

Turning to `COC/C=C/c1nc(C(=O)N2CCOCC2(C)C)c2n1-c1cc(OC(C)C)c(OC)cc1CC2` [Compound 51], the EC50 is 1000 to 5000 nM. The figure for `COC(=O)c1nc(C(=O)N2CCOCC2(C)C)c2n1-c1cc(OC(C)C)c(OC)cc1CC2` [Compound 144, 3-(3,3-Dimethyl-morpholine-4-carbonyl)-8-isopropoxy-7-methoxy-4,5-dihydro-imidazo[1,5-a]quinoline-1-carboxylic acid methyl ester] is 1000 to 5000 nM. Take `COc1cc2c(cc1OC(C)C)-n1c(-c3cccc4[nH]ncc34)nc(C(=O)N3CCOCC3(C)C)c1CC2` [Compound 81]: the 50% effective concentration (EC50) lay within 1000 to 5000 nM. Take `COc1cc2c(cc1CC(C)C)-n1c(-c3cccs3)nc(C(=O)NCCNC(C)=O)c1CC2` [Compound 48, 8-Isobutyl-7-methoxy-1-thiophen-2-yl-4,5-dihydro-imidazo[1,5-a]quinoline-3-carboxylic acid (2-acetylamino-ethyl)-amide]: the concentration for a half-maximal effect (EC50) was 1000 to 5000 nM. For the molecule `COc1cc2c(cc1OC(C)C)-n1c(-c3[nH]ncc3C)nc(C(=O)N3CCOCC3(C)C)c1CC2` [Compound 54], the concentration giving a half-maximal response (EC50) is 1000 to 5000 nM.

For the molecule `COc1cc2c(cc1-c1n[nH]c(=S)o1)-n1c(-c3cccs3)nc(C(=O)N(C)C(C)(C)C)c1CC2` [Compound 133, 7-Methoxy-1-thiophen-2-yl-8-(5-thioxo-4,5-dihydro-[1,3,4]oxadiazol-2-yl)-4,5-dihydro-imidazo[1,5-a]quinoline-3-carboxylic acid tert-butyl-methyl-amide], the EC50 is < 100 nM.

In the case of `COc1cc2c(cc1OC(C)C)-n1c(-c3cc(F)ccc3F)nc(C(=O)N3CCOCC3(C)C)c1CC2` [Compound 127], the EC50 is 100 to 1000 nM. The figure for `COCCCc1nc(C(=O)N2CCOCC2(C)C)c2n1-c1cc(OC(C)C)c(OC)cc1CC2` [Compound 82, (3,3-Dimethyl-morpholin-4-yl)-[8-isopropoxy-7-methoxy-1-(3-methoxy-propyl)-4,5-dihydro-imidazo[1,5-a]quinolin-3-yl]-methanone] is > 5000 nM. As for `COc1cc2c(cc1OC(C)C)-n1c(-c3cc(Cl)ccc3OC)nc(C(=O)N3CCOCC3(C)C)c1CC2` [Compound 105], the 50% effective concentration (EC50) lay within 1000 to 5000 nM. `CCn1nccc1-c1nc(C(=O)N2CCOCC2(C)C)c2n1-c1cc(OC(C)C)c(OC)cc1CC2` [Compound 92]: the EC50 was in the range of 100 to 1000 nM. Next, `COc1cc2c(cc1CC(C)C)-n1c(-c3cccs3)nc(C(=O)N3CCOCC3(C)C)c1CC2` [Compound 20, (3,3-Dimethyl-morpholin-4-yl)-(8-isobutyl-7-methoxy-1-thiophen-2-yl-4,5-dihydro-imidazo[1,5-a]quinolin-3-yl)-methanone]: < 100 nM; `[2H]C([2H])([2H])OC1CCN(C(=O)c2nc(-c3cccs3)n3c2CCc2cc(OC)c(CC(C)C)cc2-3)C1` (stereo not shown) [Compound 33, (8-Isobutyl-7-methoxy-1-thiophen-2-yl-4,5-dihydro-imidazo[1,5-a]quinolin-3-yl)-(3-methoxy-d3-pyrrolidin-1-yl)-methanone]: > 5000 nM.

Regarding `COc1cc2c(cc1OC(C)C)-n1c(Br)nc(C(=O)N(C)C(C)(C)C)c1CC2` [Compound 4, 1-Bromo-8-isopropoxy-7-methoxy-4,5-dihydro-imidazo[1,5-a]quinoline-3-carboxylic acid tert-butyl-methyl-amide], the EC50 was > 5000 nM. For the molecule `COc1cc2c(cc1OC(C)C)-n1c(-c3ccc(F)s3)nc(C(=O)N(C)C(C)(C)C)c1CC2` [Compound 14], the 50% effective concentration (EC50) was < 100 nM. `COc1cc2c(cc1OC)-n1c(-c3cccs3)nc(C(=O)N(C)C(C)(C)C)c1CC2` [Compound 1, 7,8-Dimethoxy-1-thiophen-2-yl-4,5-dihydro-imidazo[1,5-a]quinoline-3-carboxylic acid tert-butyl-methyl-amide]: the half-maximal effective concentration (EC50) fell in the range of 100 to 1000 nM. As for `COc1cc2c(cc1OC(C)C)-n1c(-c3cc(C)nn3C)nc(C(=O)N3CCOCC3(C)C)c1CC2` [Compound 42], the EC50 is 100 to 1000 nM.

In the case of `COc1cc2c(cc1OC(C)C)-n1c(-c3c(C)nn(C)c3C)nc(C(=O)N3CCOCC3(C)C)c1CC2` [Compound 37], the EC50 was > 5000 nM. In the case of `COc1cc2c(cc1OC(C)C)-n1c(-c3cc(C(F)(F)F)cc(C(F)(F)F)c3)nc(C(=O)N3CCOCC3(C)C)c1CC2` [Compound 119], the EC50 lay within 100 to 1000 nM. As for `COc1cc2c(cc1OC(C)C)-n1c(C3=CCNCC3)nc(C(=O)N3CCOCC3(C)C)c1CC2` [Compound 131], the concentration giving a half-maximal response (EC50) is > 5000 nM.

Take `COc1cc2c(cc1OC(C)C)-n1c(-c3cnn(C)c3C)nc(C(=O)N3CCOCC3(C)C)c1CC2` [Compound 35]: the EC50 is > 5000 nM. Regarding `COc1ccc(-c2nc(C(=O)N3CCOCC3(C)C)c3n2-c2cc(OC(C)C)c(OC)cc2CC3)cc1F` [Compound 118], the 50% effective concentration (EC50) was > 5000 nM. For the molecule `COc1ccc(-c2nc(C(=O)N3CCOCC3(C)C)c3n2-c2cc(OC(C)C)c(OC)cc2CC3)cc1Cl` [Compound 103], the EC50 was > 5000 nM. In the case of `COc1cc2c(cc1OC(C)C)-n1c(-c3cc[nH]n3)nc(C(=O)N3CCOCC3(C)C)c1CC2` [Compound 69], the EC50 is > 5000 nM. The figure for `COc1cc2c(cc1OC(C)C)-n1c(-c3cc(Cl)ccc3OC(F)(F)F)nc(C(=O)N3CCOCC3(C)C)c1CC2` [Compound 117] is 1000 to 5000 nM; for `COc1cc2c(cc1OC(C)C)-n1c(-c3cncs3)nc(C(=O)N3CCCN(C(=O)N4CCC4)CC3)c1CC2` [Compound 9] it is 1000 to 5000 nM.

The EC50 is the concentration at which the effect is half-maximal.
